Measurements as given in US20130029884A1, “BIOCIDE FORMULATIONS” (ENVIROSYSTEMS, INC., priority 2011, published 2013).

Legend:
[1] = test system: acid producing bacteria (APB); test: microbiological kill study in field water (bottle growth test), acid producing bacteria; assay type: cell-based; details: field water from a well in Texas; active biocide 94 to 500 ppm tested
Experimental: (§1) Microbiological studies were carried out with the formulation of Example 1 and compared to tests with other known biocides. The field water used for testing came from a well in Texas. The biocides were tested at varying concentrations of the active biocide in the field water at active biocide concentrations from 94 parts per million (ppm) to 500 ppm. The biocide of Example 1 was tested along with several known biocides.
(§2) Microbiological kill studies were carried out in field waters considered to be problematic.
(§3) A field water sample was used to dilute the formulation and growth media was added. […] For the SRB concentrations up to 150 ppm PCMX were studied. […] For the APB samples, concentrations of up to 100 ppm PCMX were studied. […] The diluted sample was also tested after the sample had experienced four freeze/thaw cycles and the sample with growth media added was tested with PCMX concentrations up to 100 ppm PCMX.
(§4) For the 42 ppm hydrogen sulfide concentration water, testing was carried out with PCMX concentrations up to 100 ppm. […] For the 24 ppm hydrogen sulfide concentration water, testing was carried out with PCMX concentrations up to 125 ppm.

[2] = test system: sulfate reducing bacteria (SRB); test: microbiological kill study in field water (bottle growth test), sulfate reducing bacteria; assay type: cell-based; details: field water from a well in Texas; active biocide 94 to 500 ppm tested
Experimental: as §1, §2, §3, §4

[3] = cited from earlier work

Compound | active biocide concentration with complete kill of APB [1] [ppm] | active biocide concentration with complete kill of SRB [2] [ppm] | hydrolysis half life [3] [h]
O=CCCCC=O [glutaraldehyde] | 250 | 250 | 
CN1CSC(=S)N(C)C1 [Dazomet] | > 270 | > 270 | 3.6
tetrakis hydroxylmethyl phosphonium sulfate [THPS] | 150 | 150 | 
N#CC(Br)(Br)C(N)=O [DBNPA, dibromocyanoacetamide] | 20 | 20 | 
